Data on three molecules can be found in patent US20080146626A1, “USE OF EPOTHILONES IN THE TREATMENT OF OSTEOPOROSIS AND RELATED DISEASES” (priority 2006, published 2008).

The test system of data set [1] is human osteoclasts. The data set is described as follows: osteoclast activity assay (bone resorption on bovine bone slices, CTX/TRACP 5b).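 For concentration of CTX released from bone collagen into the culture medium: CTX concentration in nM.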 It counts as cell-based. The settings on record: for resorption index CTX at day 10/TRACP 5b at day 7 / concentration of CTX released from bone collagen into the culture medium: 1.0 μM E64; for concentration of CTX released from bone collagen into the culture medium: resorption phase days 7-10. On the procedure: The objective of this study is to investigate the effects of selected test compounds selected on resorbing activity of human osteoclasts in vitro. Bone resorption is studied using a model where human osteoclast precursor cells derived from bone marrow are cultured for 7 days on bovine bone slices and allowed to differentiate into bone-resorbing osteoclasts. At day 7, the culture medium is changed, the test compounds are added, and the formed mature osteoclasts are allowed to resorb bone in an additional 3-day culture period. Tartrate-resistant acid phosphatase isoform 5b activity (TRACP 5b) is measured from the culture medium collected at day 7 as an index of the number of osteoclasts formed in each well during the differentiation period. After the totally 10 days culture period, C-terminal cross-linked telopeptides of type I collagen (CTX) are quantitated from the culture medium as an index of bone resorption. The results are expressed as the resorption index (CTX at day 10/TRACP 5b at day 7), which describes the mean activity of a single osteoclast. In each test, a baseline group without test compounds is included to obtain a baseline value. […] The test system can also be modified by adding the test compounds at the beginning of the culture period to study if the test compounds affect osteoclast differentiation. Osteoprotegerin is used as a reference inhibitor of osteoclast differentiation in such cultures.
Used herein is a method where osteoclast precursor cells derived from human bone marrow are cultured on bovine bone slices. The cells are first allowed to differentiate into mature bone-resorbing osteoclasts, and the formed osteoclasts are then allowed to resorb bone. The system is ideally suitable for determining the effects of test compounds on bone resorption in vitro. Test compounds are added into the cell cultures after the differentiation period, and their effect on the resorbing activity of mature osteoclasts is determined.
(§1) The bone resorption assay is performed according to the above described Standard Operation Procedure. Shortly, human bone marrow-derived stem cells are suspended to culture medium and allowed to attach to bovine bone slices. The bone slices are transferred into 96-well tissue culture plates containing culture medium with appropriate amounts of important growth factors favoring osteoclast differentiation, including M-CSF, RANK-ligand and TGF-beta. The cells are incubated in a CO2 incubator in humidified atmosphere of 95% air and 5% carbon dioxide at 37° C. At day 7 when osteoclast differentiation is completed, the culture medium is replaced with culture medium containing conditions favoring osteoclast activity, and the test compounds are added. The cell culture is continued for an additional three days, during which the formed mature osteoclasts are allowed to resorb bone in the presence of vehicle, control inhibitor (E64) or test compounds at different concentrations. Tartrate-resistant acid phosphatase isoform 5b activity (TRACP 5b) is measured from the culture medium collected at day 7 using the BoneTRAP® assay (SBA-Sciences, Oulu, Finland). Medium TRACP 5b activity describes the number of osteoclasts formed in each well during the differentiation period. At the end of the culture period, C-terminal cross-linked telopeptides of type I collagen (CTX) released from the bone slices are quantitated as an index of bone resorption using CrossLaps® for culture assay (Nordic Bioscience, Herlev, Denmark). The results are expressed as the resorption index (CTX at day 10/TRACP 5b at day 7), which describes the mean activity of a single osteoclast. When necessary, the ToxiLight® assay (Cambrex, East Rutherford, N.J., USA) is used to detect cytotoxic effects of test compounds.
Two separate experiments were performed in this study, an osteoclast differentiation assay and an osteoclast activity assay.

In data set [2] the test system is human osteoclasts. The data set is described as follows: cytotoxicity in human osteoclast activity assay (luminescence released from dying cells). The settings on record: day 10; for Cytotoxicity, % compared with baseline group: baseline mean = 100%; for luminescence released from dying cells during the culture period: 1.0 μM E64. On the procedure:
as §1
Two separate experiments were performed in this study, an osteoclast differentiation assay and an osteoclast activity assay. In the osteoclast differentiation assay, osteoclast precursor cells were cultured for 7 days in the presence of the test compound, and TRACP 5b released into the culture medium was determined at day 7 as an index of the number of osteoclasts formed. Cytotoxicity was determined by quantitating the amount of dying cells from the culture medium at day 2. In the osteoclast activity assay, the test compounds were added after osteoclast differentiation was completed at day 7, and the mature osteoclasts were cultured for an additional 3 days, allowing them to resorb bone. […] Medium CTX was measured at day 10 to quantitate bone resorption during days 7-10, and the results are expressed as the resorption index CTX at day 10/TRACP 5b at day 7, which describes the mean resorbing activity of a single osteoclast. Cytotoxicity was determined by quantitating the amount of dying cells from the culture medium at day 10.
The test compounds were added after osteoclast differentiation was completed at day 7, and the mature osteoclasts were cultured for an additional 3 days, allowing them to resorb bone. […] Medium CTX was measured at day 10 to quantitate bone resorption during days 7-10, and the results are expressed as the resorption index CTX at day 10/TRACP 5b at day 7, which describes the mean osteoclast activity. Cytotoxicity was determined by quantitating the amount of dying cells from the culture medium at day 10.

For data set [3], the system named is human osteoclast precursor cells derived from bone marrow. Briefly: osteoclast differentiation assay (medium TRACP 5b at day 7). In kind it is cell-based. The settings on record: 100 ng/ml OPG, in U/L. Here is the method:
The objective of this study is to investigate the effects of selected test compounds selected on resorbing activity of human osteoclasts in vitro. Bone resorption is studied using a model where human osteoclast precursor cells derived from bone marrow are cultured for 7 days on bovine bone slices and allowed to differentiate into bone-resorbing osteoclasts. […] In each test, a baseline group without test compounds is included to obtain a baseline value. […] The test system can also be modified by adding the test compounds at the beginning of the culture period to study if the test compounds affect osteoclast differentiation. Osteoprotegerin is used as a reference inhibitor of osteoclast differentiation in such cultures.
Appropriate dilutions were made from the stock solution to obtain the desired test concentrations (0.1 nM, 1 nM and 10 nM in osteoclast differentiation assay and 1 nM, 10 nM and 100 nM in osteoclast activity assay).

Setting [4] is: Homo sapiens, Osteoclast, read-out: Resorbing activity, % of activity compared with baseline group.

Where “and” joins values, the source holds several entries; their conditions need not be identical. Equal entries are not always repeated.

In the case of `CC(=O)O[C@H]1C(=O)[C@@]2(C)[C@H]([C@H](OC(=O)c3ccccc3)[C@]3(O)C[C@H](OC(=O)[C@H](O)[C@@H](NC(=O)c4ccccc4)c4ccccc4)C(C)=C1C3(C)C)[C@]1(OC(C)=O)CO[C@@H]1C[C@@H]2O` [Paclitaxel, paclitaxel, reference compound], in the data set on human osteoclasts [1] (setting [4]), the activity at 0.0025 µM turned out to be 109%, the activity at 0.005 µM was determined as 98%, the activity at 0.01 µM is 87% and the activity at 0.02 µM stood at 95%. In addition, in the data set with human osteoclasts [1] (setting [4]), the activity at 0.05 µM is 64%, the activity at 0.1 µM turned out to be 57% and the activity at 0.2 µM is 72%. In the data set with human osteoclasts [2] (2.5 nM), the “Cytotoxicity, % compared with baseline group” value (“Cytotoxicity, %” below) was found to be 121%. The “Cytotoxicity, %” value in the data set on human osteoclasts [2] (5 nM) was determined as 99%. Further, the “Cytotoxicity, %” value with human osteoclasts [2] (10 nM) is 121%. Further, the “Cytotoxicity, %” value with human osteoclasts [2] (20 nM) amounted to 116%. In the data set on human osteoclasts [2] (50 nM), the “Cytotoxicity, %” value turned out to be 131%. In the data set with human osteoclasts [2] (100 nM), the “Cytotoxicity, %” value was 120%. Moreover, the “Cytotoxicity, %” value in the data set on human osteoclasts [2] (200 nM) is on record as 125%.
As for `CC(C)C[C@H](NC(=O)[C@H]1O[C@@H]1C(=O)O)C(=O)NCCCCN=C(N)N` [Compound E64, reference compound], the “resorption index CTX at day 10/TRACP 5b at day 7” value in the data set on human osteoclasts [1] (Mean of 6 replicates) is 0.45; with human osteoclasts [1] (single replicate), 0.41 (2×) and 0.64 and 0.38 and 0.59 and 0.29. Also, the “concentration of CTX released from bone collagen into the culture medium” value in the data set with human osteoclasts [1] (Mean of 6 replicates) is 8.44 nM; in the data set on human osteoclasts [1] (single replicate), 9.13 nM and 10.96 nM and 7.91 nM and 7.78 nM and 9.39 nM and 5.45 nM. Besides, the “luminescence released from dying cells during the culture period” value in the data set on human osteoclasts [2] (Mean of 6 replicates) was 1594; with human osteoclasts [2] (single replicate) it was 1979 and 1666 and 1489 and 1568 and 1355 and 1507.

B1: OPG: Osteoprotegerin, reference inhibitor of osteoclast differentiation (PeproTech 450-14) (protein, UniProt O00300 22-401, looked up)
Tumor necrosis factor …: ETFPPKYLHYDEETSHQLLCDKCPPGTYLKQHCTAKWKTVCAPCPDHYYTDSWHTSDECLYCSPVCKELQYVKQECNRTHNRVCECKEGRYLEIEFCLKHRSCPPGFGVVQAGTPERNTVCKRCPDGFFSNETSSKAPCRKHTNCSVFGLLLTQKGNATHDNICSGNSESTQKCGIDVTLCEEAFFRFAVPTKFTPNWLSVLVDNLPGTKVNAESVERIKRQHSSQEQTFQLLKLWKHQNKDQDIVKKIIQDIDLCENSVQRHIGHANLTFEQLRSLMESLPGKKVGAEDIEKTIKACKPSDQILKLLSLWRIKNGDQDTLKGLMHALKHSKTYHFPKTVTQSLKKTIRFLHSFTMYKLYQKLFLEMIGNQVQSVKISCL
In the case of B1, the “medium TRACP 5b activity at day 7” value in data set [3] (Mean of 6 replicates) was 8.59; in data set [3] (single replicate), 4.46 and 10.67 and 10.53 and 10.19 and 5.70 and 10.00.
